Results reported in PubChem BioAssay AID1259411 (Chemical Carcinogenesis Research Information System (CCRIS), 2018).
The source made the active and inactive calls. How the calls were made is not given here.

Test system: rodent carcinogenicity bioassays, tumor incidence
Test: CCRIS carcinogenicity studies
Conditions: Dose: 0, Dose: 0
Method in brief: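 Archive of carcinogenicity, mutagenicity, tumor promotion and tumor inhibition results drawn from journals, NCI reports and other sources, expert-reviewed; covers 1985-2011 and is no longer updated.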

C[C@H]1CCCC(=O)CCC/C=C/c2cc(O)cc(O)c2C(=O)O1
carcinogen call (Species: MOUSE, Strain/Sex: B6C3F1/FEMALE, Route: ORAL, 50, 100 PPM IN DIET, 50, 100 PPM IN DIET, Tumor Site: Type of Lesion: LIVER: HEPATOCELLULAR ADENOMA, CARCINOMA, PITUITARY GLAND: ADENOMA, CARCINOMA): active; positive | carcinogen call (Species: MOUSE, Strain/Sex: B6C3F1/MALE, Route: ORAL, 50, 100 PPM IN DIET, 50, 100 PPM IN DIET, Tumor Site: Type of Lesion: PITUITARY GLAND: ADENOMA, CARCINOMA): active; positive | carcinogen call (Species: RAT, Strain/Sex: F344/FEMALE, Route: ORAL, 25, 50 PPM IN DIET, 25, 50 PPM IN DIET): inactive; negative | carcinogen call (Species: RAT, Strain/Sex: F344/MALE, Route: ORAL, 25, 50 PPM IN DIET, 25, 50 PPM IN DIET): inactive; negative

CN1C(=O)C[C@@H](C(=O)N[C@@H](Cc2cnc[nH]2)C(=O)N2CCC[C@H]2C(N)=O)NC1=O
carcinogen call (Species: MOUSE, Strain/Sex: CD-1/FEMALE, Route: GAVAGE, 5, 15, 50 MG/KG 1/D 7 D/WK FOR 104 WK (STUDY DURATION: 104 WK), 5, 15, 50 MG/KG 1/D 7 D/WK FOR 104 WK (STUDY DURATION: 104 WK)): inactive; negative | carcinogen call (Species: MOUSE, Strain/Sex: CD-1/MALE, Route: GAVAGE, 5, 15, 50 MG/KG 1/D 7 D/WK FOR 104 WK (STUDY DURATION: 104 WK), 5, 15, 50 MG/KG 1/D 7 D/WK FOR 104 WK (STUDY DURATION: 104 WK)): inactive; negative | carcinogen call (Species: RAT, Strain/Sex: STRAIN-CD/FEMALE, Route: GAVAGE, 20, 60, 200 MG/KG 1/D 7 D/WK FOR 94 WK (STUDY DURATION: 94 WK), 20, 60, 200 MG/KG 1/D 7 D/WK FOR 94 WK (STUDY DURATION: 94 WK)): inactive; negative | carcinogen call (Species: RAT, Strain/Sex: STRAIN-CD/MALE, Route: GAVAGE, 20, 60, 200 MG/KG 1/D 7 D/WK FOR 90 WK (STUDY DURATION: 90 WK), 20, 60, 200 MG/KG 1/D 7 D/WK FOR 90 WK (STUDY DURATION: 90 WK)): inactive; negative

[Cl][Sn][Cl]
carcinogen call (Species: MOUSE, Strain/Sex: B6C3F1/FEMALE, Route: ORAL, 1000, 2000 PPM IN DIET FOR 105 WK (STUDY DURATION: 105 WK), 1000, 2000 PPM IN DIET FOR 105 WK (STUDY DURATION: 105 WK)): inactive; negative | carcinogen call (Species: MOUSE, Strain/Sex: B6C3F1/MALE, Route: ORAL, 1000, 2000 PPM IN DIET FOR 105 WK (STUDY DURATION: 105 WK), 1000, 2000 PPM IN DIET FOR 105 WK (STUDY DURATION: 105 WK)): inactive; negative | carcinogen call (Species: RAT, Strain/Sex: F344/FEMALE, Route: ORAL, 1000, 2000 PPM IN DIET FOR 105 WK (STUDY DURATION: 105 WK), 1000, 2000 PPM IN DIET FOR 105 WK (STUDY DURATION: 105 WK)): inactive; negative | carcinogen call (Species: RAT, Strain/Sex: F344/MALE, Route: ORAL, 1000, 2000 PPM IN DIET FOR 105 WK (STUDY DURATION: 105 WK), 1000, 2000 PPM IN DIET FOR 105 WK (STUDY DURATION: 105 WK), Tumor Site: Type of Lesion: THYROID GLAND: C-CELL ADENOMA, C-CELL ADENOMA OR CARCINOMA): equivocal
